# Results: patent publication US11000512B2, “Use of DDX3 inhibitors as antiproliferative agents” (AZIENDA OSPEDALIERA UNIVERSITARIA SENESE, priority 2016, dated 2021)
# Legend:
# [1] = test system: Human osteosarcoma cell line (U2OS); test: Cytotoxicity test / growth inhibition, U2OS; format: cell-based; conditions: 48 hours, cell counting
# Method: (§1) Cells were purchased from American Type Culture Collection (ATCC, Manassas, Va., USA). The LNCaP (ATCC® CRL-1740™), A549 (ATCC® CCL-185™), MDA-MB-231 (ATCC® CRM-HTB-26™), 22Rv1 (ATCC® CRL-2505™), HCT-116 (ATCC® CCL-247™) and PC3 (ATCC® CRL-1435™) cells were maintained in Roswell Park Memorial Institute 1640 medium (RPMI; Euroclone, ECB9006L) supplemented with 10% fetal bovine serum (Euroclone; ECS0180L), 2 mM L-glutamine, 100 units/mL penicillin and […] streptomycin at 37° C. in an atmosphere of 5% CO2/air. DU145 (ATCC® HTB-81™), and DAOY (ATCC® HTB-186™) cells were maintained in Eagle's minimal essential medium (EMEM; Euro-clone, ECM0445L) supplemented with 10% fetal bovine serum (Euroclone; ECS0180L), 2 mM L-glutamine, 100 units/ml penicillin and […] streptomycin at 37° C. in an atmosphere of 5% CO2/air. SH-SY5Y (ATCC® CRL-2266™), DBRTG (ATCC® CRL-2020™), HeLa (ATCC® CCL-2™), HN6 cells (kindly provided by Dr Silvio Gutkind, UCSD Medical Center, Moores Cancer Center USA, Chen J. J et al, Oncotarget 2013, 4, 206-217)), U2OS (ATCC® HTB-96™), RD18 cells (kindly provided by Dr P. Boccuni Memorial Sloan-Kettering Cancer Center, New York, USA Vella S. et al. Clin Epigenetics. 2015 6; 7-82), cells were maintained in Dulbecco's modified Eagle's medium (DMEM; Euroclone, ECB7501L) supplemented with 10% fetal bovine serum (Euroclone; ECS0180L), 2 mM L-glutamine, 100 units/ml penicillin and 100 mg/mL streptomycin at 37° C. in an atmosphere of 5% CO2/air.
# (§2) Cell lines were seeded at appropriate densities in 2 mL growth medium in 6-wells culture plates 24 hours before the treatment with the inhibitor compounds. After 24 h the culture medium was removed and fresh medium containing increasing concentrations of chemical compounds was added to cells. The fixed final concentrations were: 0.1 μM, 1 μM, 10 μM, 100 μM. DMSO was the vehicle used for dilution of the compounds and its final concentration on cells was less than 0.2%. Medium-only containing wells were included as controls. Cells were incubated 48 hours with drugs and, then, cell viability was evaluated.
# (§3) Cells were detached from each well of the 6-wells plates with 300 μL of Trypsin and suspended in culture medium to a final volume of 1 mL. Cell viability was then assessed through cell counting. Cells were diluted in 1:50 ratio of an isotonic buffered diluent, Isoton (Backman Coulter), following the manufacturer's instructions, and counted using an automated cell counter (Z2 series Coulter Counter, Beckman Coulter). Each cell count was performed in three replicates. The values corresponding to the relative survival of cells in presence of each chemical compound at single concentrations were normalized to the untreated controls. Then, the half maximal inhibitory concentration (IC50) value, which represent the drug concentration that is required to induce a 50% growth inhibition in vitro, was calculated with GraphPad Prism 6.0 software using the best fitting sigmoid curve.
# [2] = test system: Human head and neck squamous carcinoma cell line (HN6); test: Cytotoxicity test / growth inhibition, HN6; format: cell-based; conditions: HN6, 48 hours, cell counting
# Method: as §1, §2, §3
# [3] = test system: Human cervical carcinoma cell line (HeLa); test: Cytotoxicity test / growth inhibition, HeLa; format: cell-based; conditions: 48 hours, cell counting
# Method: as §1, with “2015 6; 7-82), cells were maintained in Dulbecco's modified Eagle's medium (DMEM; Euroclone, ECB7501L) supplemented with 10% fetal bovine serum (Euroclone; ECS0180L), 2 mM L-glutamine, 100 units/ml penicillin and 100 mg/mL streptomycin at 37° C. in an atmosphere of 5% CO2/air.” left out
# (§4) Cell lines were seeded at appropriate densities in 2 mL growth medium in 6-wells culture plates 24 hours before the treatment with the inhibitor compounds. […] Cells were incubated 48 hours with drugs and, then, cell viability was evaluated.
# (§5) Cells were detached from each well of the 6-wells plates with 300 μL of Trypsin and suspended in culture medium to a final volume of 1 mL. Cell viability was then assessed through cell counting. Cells were diluted in 1:50 ratio of an isotonic buffered diluent, Isoton (Backman Coulter), following the manufacturer's instructions, and counted using an automated cell counter (Z2 series Coulter Counter, Beckman Coulter). […]
# [4] = test system: Human colorectal carcinoma cell line (HCT116); test: Cytotoxicity test / growth inhibition, HCT116; format: cell-based; conditions: HCT-116, HCT116, 48 hours, cell counting
# Method: as §1, with “2015 6; 7-82), cells were maintained in Dulbecco's modified Eagle's medium (DMEM; Euroclone, ECB7501L) supplemented with 10% fetal bovine serum (Euroclone; ECS0180L), 2 mM L-glutamine, 100 units/ml penicillin and 100 mg/mL streptomycin at 37° C. in an atmosphere of 5% CO2/air.” left out
# as §4, §5
# [5] = test system: Human Prostate cell line derived from brain metastasis (DU-145); test: Cytotoxicity test / growth inhibition, DU-145; format: cell-based; conditions: DU-145, 48 hours, cell counting
# Method: as §1, §2
# as §5, with “Coulter). Each cell count was performed in three replicates. The values corresponding to the relative survival of cells in presence of each chemical compound at single concentrations were normalized to the untreated controls.” for “Coulter).”
# [6] = test system: Human adenocarcinomic alveolar basal epithelial cell line (A549); test: Cytotoxicity test / growth inhibition, A549; format: cell-based; conditions: A549, 48 hours, cell counting
# Method: as §1, §2, §3
# [7] = test system: Human breast adenocarcinoma cell line (MDA-MB-231); test: Cytotoxicity test / growth inhibition, MDA-MB-231; format: cell-based; conditions: MDA-MB-231, 48 hours, cell counting
# Method: as §1, §2, §3
# [8] = test system: Human brain glioblastoma cell line (DBTRG); test: Cytotoxicity test / growth inhibition, DBTRG; format: cell-based; conditions: 48 hours, cell counting
# Method: (§6) Cells were purchased from American Type Culture Collection (ATCC, Manassas, Va., USA). The LNCaP (ATCC® CRL-1740™), A549 (ATCC® CCL-185™), MDA-MB-231 (ATCC® CRM-HTB-26™), 22Rv1 (ATCC® CRL-2505™), HCT-116 (ATCC® CCL-247™) and PC3 (ATCC® CRL-1435™) cells were maintained in Roswell Park Memorial Institute 1640 medium (RPMI; Euroclone, ECB9006L) supplemented with 10% fetal bovine serum (Euroclone; ECS0180L), 2 mM L-glutamine, 100 units/mL penicillin and […] streptomycin at 37° C. in an atmosphere of 5% CO2/air. […]
# as §4, §5
# [9] = test system: Human muscle rhabdomyosarcoma cell line (RD18); test: Cytotoxicity test / growth inhibition, RD18; format: cell-based; conditions: RD18, 48 hours, cell counting
# Method: as §6, §4, §5
# [10] = test system: Human medulloblastoma cell line (DAOY); test: Cytotoxicity test / growth inhibition, DAOY; format: cell-based; conditions: 48 hours, cell counting
# Method: as §6, §4, §5
# [11] = Parallel Artificial Membrane Permeability Assay (PAMPA), GI; format: in vitro ADME; conditions: GI (intestinal) PAMPA, value in brackets
# Method: Parallel Artificial Membrane Permeability Assay (PAMPA). Donor solution (0.5 mM) was prepared by diluting 1 mM dimethylsulfoxide (DMSO) compound stock solution using phosphate buffer (pH 7.4, 0.025 M). Filters were coated with 5 μL of a 1% (w/v) dodecane solution of phosphatidylcholine prepared from CHCl3 solution 10% w/v, for intestinal permeability. Donor solution (150 μL) was added to each well of the filter plate. To each well of the acceptor plate were added 300 μL of solution (50% DMSO in phosphate buffer). All compounds were tested in three different plates on different days. The sandwich was incubated for 5 h at room temperature under gentle shaking. After the incubation time, the plates were separated, and samples were taken from both receiver and donor sides and analyzed using LC with UV detection at 280 nm.
# LC analysis were performed with a Varian Prostar HPLC system (Varian Analytical Instruments, USA) equipped with a binary pump with a manual injection valve and model Prostar 325 UV-VIS Detector. Chromatographic separations were conducted using a Polaris C18-A column (150-4.6 mm, 5 μm particle size) at a flow rate of 0.8 mL min^−1 with a mobile phase composed of 60% ACN/40% H2O.
# Permeability (Papp) for PAMPA was calculated according to the following equation, obtained from Wohnsland and Faller and Sugano et al. equation with some modification in order to obtain permeability values in cm s^−1,
# where VA is the volume in the acceptor well, VD is the volume in the donor well (cm^3), A is the “effective area” of the membrane (cm^2), t is the incubation time (s) and r the ratio between drug concentration in the acceptor and equilibrium concentration of the drug in the total volume (VD+VA). Drug concentration is estimated by using the peak area integration.
# Membrane retentions (%) were calculated according to the following equation: […]
# where r is the ratio between drug concentration in the acceptor and equilibrium concentration, D, A, and Eq represented drug concentration in the donor, acceptor and equilibrium solution, respectively.
# [12] = test system: Human Prostate cancer cell line (PC3); test: Cytotoxicity test / growth inhibition, PC3; format: cell-based; conditions: PC3, 48 hours, cell counting
# Method: as §1, with “2015 6; 7-82), cells were maintained in Dulbecco's modified Eagle's medium (DMEM; Euroclone, ECB7501L) supplemented with 10% fetal bovine serum (Euroclone; ECS0180L), 2 mM L-glutamine, 100 units/ml penicillin and 100 mg/mL streptomycin at 37° C. in an atmosphere of 5% CO2/air.” left out
# as §4, §5
# [13] = test system: Human Glioblastoma cell line (U87); test: Cytotoxicity test / growth inhibition, U87; format: cell-based; conditions: U87, 48 hours, cell counting
# Method: as §2
# as §5, with “Coulter). Each cell count was performed in three replicates. The values corresponding to the relative survival of cells in presence of each chemical compound at single concentrations were normalized to the untreated controls.” for “Coulter).”
# [14] = test system: Human Neuroblastoma cell line (SH-SY5Y); test: Cytotoxicity test / growth inhibition, SH-SY5Y; format: cell-based; conditions: 48 hours, cell counting
# Method: as §6, §4, §5
# [15] = Microsomal Stability Assay (HLM); format: in vitro ADME; conditions: human liver microsomes, 37° C., 60 min, NADPH-generating system; percentage of not metabolized compound
# Description: For the quantification was used an LC-MS system consisted of a Varian apparatus (Varian Inc) including a vacuum solvent degassing unit, two pumps (212-LC), a Triple Quadrupole MSD (Mod. 320-LC) mass spectrometer with ES interface and Varian MS Workstation System Control Vers. 6.9 software. Chromatographic separation was obtained using a Pursuit C18 column (50×2.0 mm) (Varian) with 3 μm particle size and gradient elution: eluent A being ACN and eluent B consisting of water. […] The flow rate was 0.2 mL min^−1 and injection volume was 5 μL. The instrument operated in positive mode and parameters were: detector 1850 V, drying gas pressure 25.0 psi, desolvation temperature 300.0° C., nebulizing gas 40.0 psi, needle 5000 V and shield 600 V. Nitrogen was used as nebulizer gas and drying gas. Collision induced dissociation was performed using Argon as the collision gas at a pressure of 1.8 mTorr in the collision cell. Microsomal Stability Assay. […] The reaction was stopped by cooling on ice and adding 1.0 mL of acetonitrile. The reaction mixtures were then centrifuged, and the parent drug and metabolites were subsequently determined by LC-UV-MS. Chromatographic analysis was performed with an Agilent 1100 LC/MSD VL system (G1946C) (Agilent Technologies, Palo Alto, Calif.) constituted by a vacuum solvent degassing unit, a binary high-pressure gradient pump, an 1100 series UV detector, and an 1100 MSD model VL benchtop mass spectrometer.
# Chromatographic separation was obtained using a Varian Polaris C18-A column (150-4.6 mm, 5 μm particle size) and gradient elution: eluent A being ACN and eluent B consisting of water. […] The flow rate was 0.8 mL min^−1 and injection volume was 20 μL.
# The Agilent 1100 series mass spectra detection (MSD) single-quadrupole instrument was equipped with the orthogonal spray API-ES (Agilent Technologies, Palo Alto, Calif.). Nitrogen was used as nebulizing and drying gas. The pressure of the nebulizing gas, the flow of the drying gas, the capillary voltage, the fragmentor voltage, and the vaporization temperature were set at 40 psi, 9 L/min, 3000 V, 70 V, and 350° C., respectively. UV detection was monitored at 280 nm. The LC-ESI-MS determination was performed by operating the MSD in the positive ion mode. Spectra were acquired over the scan range m/z 100-1500 using a step size of 0.1 u. The percentage of not metabolized compound was calculated by comparison with reference solutions.
# [16] = test system: Human Prostate Adenocarcinoma cell line (LNCaP); test: Cytotoxicity test / growth inhibition, LNCaP; format: cell-based; conditions: 48 hours, cell counting
# Method: as §6, §4, §5
# [17] = test system: Human Prostate carcinoma epithelial cell line (22Rv1); test: Cytotoxicity test / growth inhibition, 22Rv1; format: cell-based; conditions: 22Rv1, 48 hours, cell counting
# Method: as §6, §4, §5
# ATPase activity of DDX3 = ATPase activity of DDX3 (Homo sapiens, UniProt O00571); conditions: Maga et al. 2008; cited from earlier work
# Chain of ATPase activity of DDX3 (O00571 whole entry): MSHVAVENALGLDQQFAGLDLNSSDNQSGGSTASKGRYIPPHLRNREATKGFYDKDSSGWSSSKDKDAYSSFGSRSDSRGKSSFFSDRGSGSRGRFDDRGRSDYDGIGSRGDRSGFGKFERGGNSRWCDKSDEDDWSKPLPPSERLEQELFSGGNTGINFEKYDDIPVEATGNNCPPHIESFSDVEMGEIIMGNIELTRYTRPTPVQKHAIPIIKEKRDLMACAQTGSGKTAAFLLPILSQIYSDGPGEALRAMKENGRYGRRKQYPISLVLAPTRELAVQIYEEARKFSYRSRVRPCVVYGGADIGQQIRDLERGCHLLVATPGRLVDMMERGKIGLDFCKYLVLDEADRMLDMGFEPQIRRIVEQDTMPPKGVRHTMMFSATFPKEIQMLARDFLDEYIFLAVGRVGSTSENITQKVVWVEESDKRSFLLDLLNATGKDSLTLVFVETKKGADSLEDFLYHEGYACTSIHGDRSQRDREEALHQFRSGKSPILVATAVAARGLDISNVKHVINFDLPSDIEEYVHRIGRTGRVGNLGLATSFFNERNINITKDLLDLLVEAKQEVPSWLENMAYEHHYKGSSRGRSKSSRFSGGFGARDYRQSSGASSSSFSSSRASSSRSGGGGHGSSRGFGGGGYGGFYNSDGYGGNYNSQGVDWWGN
# MOLT-4 T-lymphocytic = conditions: cited from earlier work
# HIV-1 (IIIB) = HIV-1 (IIIB) in MT4-cells; cited from earlier work
# HIV = conditions: viral load of PBMCs infected with HIV; cited from earlier work
smiles,measurement,setting,value
"CCCCc1cn(-c2ccc(NC(=O)Nc3ccccc3C(F)(F)F)cc2)nn1 [Compound 22a, 1-(4-(4-butyl-1H-1,2,3-triazol-1-yl)phenyl)-3-(2-(trifluoromethyl)phenyl)urea]",IC50,[1],4.2 µM
same,IC50,[2],0.8 µM
same,IC50,[3],6.29 µM
same,IC50,[4],3.9 µM
same,IC50,[5],0.1 µM
same,IC50,[6],1.4 µM
same,IC50,[7],1.4 µM
same,IC50,[8],5.8 µM
same,IC50,[9],3.2 µM
same,IC50,[10],3.3 µM
same,PAMPA GI (RM %) membrane retention,[11],23.9%
same,IC50,[12],25.6 µM
"CCCCc1cn(-c2cccc(S(=O)(=O)Nc3ccccc3C(F)(F)F)c2)nn1 [Compound 64d, 3-(4-butyl-1H-1,2,3-triazol-1-yl)-N-(2-(trifluoromethyl)phenyl)benzenesulfonamide]",IC50,[13],87 µM
same,IC50,[3],51.7 µM
same,IC50,[14],18.8 µM
same,IC50,[5],3 µM
same,IC50,[6],21.3 µM
same,Sability %,[15],99%
same,IC50,[16],16.7 µM
same,IC50,[7],15.7 µM
same,IC50,[17],14 µM
O=C(CN1C(=O)/C(=C/c2cccc(Br)c2)SC1=S)Nc1ccccc1O [FE15],Ki,ATPase activity of DDX3,5.4 µM
same,CC50,MOLT-4 T-lymphocytic,> 200 µM
same,EC50,HIV-1 (IIIB),86.7 µM
Cc1ccccc1NC(=O)Nc1cccc([N+](=O)[O-])c1 [EI01D],EC50,HIV,10 µM
